From US7553972B2, “Benzamide inhibitors of the P2X7 receptor” (Pfizer, Inc., priority 2003, dated 2009)

Each compound was assayed against T1, P2X7 receptor (Homo sapiens, UniProt Q99572) (assay: Inhibition of ATP-stimulated IL-1β release from LPS-activated blood monocytes (P2X7 antagonist activity, ELISA readout)). Conditions: monocytes from normal volunteers, 10 ng/ml LPS 2 h, compound 30 min, 2 mM ATP 3 h, IL-1β by ELISA, triplicate wells; read-out: IC50 (inhibit 50% of the stimulation of the release of IL-1β from monocytes by ATP).
T1 construct: endogenous in cells
T1 sequence (Q99572 1-595): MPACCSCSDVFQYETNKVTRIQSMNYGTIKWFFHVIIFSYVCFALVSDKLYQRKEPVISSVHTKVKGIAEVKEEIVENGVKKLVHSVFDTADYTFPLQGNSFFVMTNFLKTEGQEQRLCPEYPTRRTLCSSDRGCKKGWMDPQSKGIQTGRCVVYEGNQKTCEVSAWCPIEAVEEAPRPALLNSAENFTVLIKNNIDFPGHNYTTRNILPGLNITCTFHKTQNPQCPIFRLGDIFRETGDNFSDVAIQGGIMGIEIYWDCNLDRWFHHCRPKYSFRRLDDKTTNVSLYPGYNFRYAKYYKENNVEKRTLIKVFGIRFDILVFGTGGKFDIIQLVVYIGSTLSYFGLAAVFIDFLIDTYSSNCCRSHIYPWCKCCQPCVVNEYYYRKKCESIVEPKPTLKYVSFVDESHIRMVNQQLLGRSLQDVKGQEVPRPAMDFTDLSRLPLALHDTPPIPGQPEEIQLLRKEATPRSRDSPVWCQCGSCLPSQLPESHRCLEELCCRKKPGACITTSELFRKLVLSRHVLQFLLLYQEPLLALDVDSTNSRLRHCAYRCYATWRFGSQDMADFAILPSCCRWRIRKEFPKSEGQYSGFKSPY
Type: cell-based
Procedure: In like manner, the compounds of the invention can be tested for antagonist activity at the P2X7 receptor using the cytokine IL-1β as the readout. Blood collected from normal volunteers in the presence of heparin is fractionated using lymphocyte separation medium obtained from Organon Technica (Westchester, Pa.). […] The resulting cell pellet was suspended in 10 ml of Maintenance Medium and a cell count was performed. In an average experiment, 2×10^5 mononuclear cells are seeded into each well of 96-well plates in a total volume of 0.1 ml. Monocytes are allowed to adhere for 2 hours, after which the supernatants are discarded and the attached cells are rinsed twice and then incubated in Maintenance Medium overnight at 37° C. in a 5% CO2 environment.
(§1) The cultured monocytes can be activated with 10 ng/ml LPS (E. coli serotype 055:B5; Sigma Chemicals, St. Louis, Mo.). […] ATP then is introduced (from a 100 mM stock solution, pH 7) to achieve a final concentration of 2 mM and the plate is incubated at 37° C. for an additional 3 hours. Media were harvested and clarified by centrifugation, and their IL-1[…] content was determined by ELISA (R&D Systems; Minneapolis, Minn.).
Blood was collected from normal volunteers in the presence of heparin, and was fractionated using lymphocyte separation medium obtained from Organon Technica (Westchester, Pa.). […] The resulting cell pellet was suspended in 10 ml of Maintenance Medium and a cell count was performed. Approximately, 2×10^5 mononuclear cells were seeded into each well of 96-well plates in a total volume of 0.1 ml. Monocytes were allowed to adhere for 2 hours, after which the supernatants were discarded and the attached cells were rinsed twice and then incubated in Maintenance Medium overnight at 37° C. in a 5% CO2 environment.
as §1, with “monocytes were” for “monocytes can be”, “then was” for “then is”, “plate was” for “plate is”, “their IL-1β” for “their IL-1[…]”

Row | IC50 | SMILES
1 | 525 nM | COc1ccc(-c2ccc(Cl)c(C(=O)NCCc3ccccc3Cl)c2)nn1 [Example 8, 2-Chloro-N-[2-(2-chloro-phenyl)-ethyl]-5-(6-methoxy-pyridazin-3-yl)-benzamide]
2 | 51 nM | Cc1cc(-c2ccc(Cl)c(C(=O)NCC3(O)CCCCCC3)c2)nn1CC#N [Example 36, 2-Chloro-5-(1-cyanomethyl-5-methyl-1H-pyrazol-3-yl)-N-(1-hydroxy-cycloheptylmethyl)-benzamide]
3 | 130 nM | Cc1cc(-c2ccc(Cl)c(C(=O)NCC3(O)CCCCCC3)c2)n(C[C@@H](O)CO)n1 [Example 43, 2-Chloro-5-[2-(2,3-dihydroxy-propyl)-5-methyl-2H-pyrazol-3-yl]-N-(1-hydroxy-cycloheptylmethyl)-benzamide]
4 | 240 nM | Cc1cc(-c2ccc(Cl)c(C(=O)NCC3(O)CCCCCC3)c2)on1 [Example 12, 2-Chloro-N-(1-hydroxy-cycloheptylmethyl)-5-(3-methyl-isoxazol-5-yl)-benzamide]
5 | 8 nM | Cc1cc(-c2ccc(Cl)c(C(=O)NCC3(O)CCCCCC3)c2)nn1CC(C)(C)O [Example 42, 2-Chloro-N-(1-hydroxy-cycloheptylmethyl)-5-[1-(2-hydroxy-2-methyl-propyl)-5-methyl-1H-pyrazol-3-yl]-benzamide]
6 | 245 nM | O=C(NCC1(O)CCCCCC1)c1cc(-c2ccc(=O)n(CCO)n2)ccc1Cl [Example 38, 2-Chloro-N-(1-hydroxy-cycloheptylmethyl)-5-[1-(2-hydroxy-ethyl)-6-oxo-1,6-dihydro-pyridazin-3-yl]-benzamide]
7 | 930 nM | O=C(NCC1(O)CCCCCC1)c1cc(-c2ccc(=O)[nH]n2)ccc1Cl [Example 5, 2-Chloro-N-(1-hydroxy-cycloheptylmethyl)-5-(6-oxo-1,6-dihydro-pyridazin-3-yl)-benzamide]
8 | 31 nM | O=C(NCC1(O)CCCCCC1)c1cc(-c2ccn(CCO)n2)ccc1Cl [Example 27, 2-Chloro-N-(1-hydroxy-cycloheptylmethyl)-5-[1-(2-hydroxy-ethyl)-1H-pyrazol-3-yl]-benzamide]
9 | 18 nM | Cc1cc(-c2ccc(Cl)c(C(=O)NCC3(O)CCCCCC3)c2)nn1CC(N)=O [Example 37, 5-(1-Carbamoylmethyl-5-methyl-1H-pyrazol-3-yl)-2-chloro-N-(1-hydroxy-cycloheptylmethyl)-benzamide]
10 | 800 nM | O=C(NCCc1ccccc1Cl)c1cc(-c2cn[nH]c2)ccc1Cl [Example 10, 2-Chloro-N-[2-(2-chloro-phenyl)-ethyl]-5-(1H-pyrazol-4-yl)-benzamide]
11 | 242 nM | Cn1ccc(-c2ccc(Cl)c(C(=O)NCC3(O)CCCCCC3)c2)n1 [Example 29, 2-Chloro-N-(1-hydroxy-cycloheptylmethyl)-5-(1-methyl-1H-pyrazol-3-yl)-benzamide]
12 | 50 nM | O=C(NCC1(O)CCCCCC1)c1cc(-c2cc(C3CC3)[nH]n2)ccc1Cl [Example 22, 2-Chloro-5-(5-cyclopropyl-1H-pyrazol-3-yl)-N-(1-hydroxy-cycloheptylmethyl)-benzamide]
13 | 5 nM | Cc1cc(-c2ccc(Cl)c(C(=O)NCC3(O)CCCCCC3)c2)nn1C[C@@H](O)CN [Example 54, 5-[1-(3-Amino-2-hydroxy-propyl)-5-methyl-1H-pyrazol-3-yl]-2-chloro-N-(1-hydroxy-cycloheptylmethyl)-benzamide]
14 | 1660 nM | Cc1ccc(-c2ccc(Cl)c(C(=O)NCCc3ccccc3Cl)c2)nc1 [Example 7, 2-Chloro-N-[2-(2-chloro-phenyl)-ethyl]-5-(5-methyl-pyridin-2-yl)-benzamide]
15 | 121 nM | NC(=O)Cn1ccc(-c2ccc(Cl)c(C(=O)NCC3(O)CCCCCC3)c2)n1 [Example 35, 5-(1-Carbamoylmethyl-1H-pyrazol-3-yl)-2-chloro-N-(1-hydroxy-cycloheptylmethyl)-benzamide]
16 | 200 nM | O=C(NCC1(O)CCCCCC1)c1cc(-c2cc(C(F)(F)F)n[nH]2)ccc1Cl [Example 23, 2-Chloro-N-(1-hydroxy-cycloheptylmethyl)-5-(5-trifluoromethyl-1H-pyrazol-3-yl)-benzamide]
17 | 4 nM | Cc1cc(-c2ccc(Cl)c(C(=O)NCC3(O)CCCCCC3)c2)nn1CCO [Example 25, 2-Chloro-N-(1-hydroxy-cycloheptylmethyl)-5-[1-(2-hydroxy-ethyl)-5-methyl-1H-pyrazol-3-yl]-benzamide]
18 | 2.5 nM | Cc1cc(-c2ccc(Cl)c(C(=O)NCC3(O)CCCCCC3)c2)nn1CC(O)CN (stereo not drawn) [Example 44, 5-[1-(3-Amino-2-hydroxy-propyl)-5-methyl-1H-pyrazol-3-yl]-2-chloro-N-(1-hydroxy-cycloheptylmethyl)-benzamide]
19 | 46 nM | Cc1cc(-c2ccc(Cl)c(C(=O)NCC3(C#N)CCCCCC3)c2)[nH]n1 [Example 21, 2-Chloro-N-(1-cyano-cycloheptylmethyl)-5-(5-methyl-2H-pyrazol-3-yl)-benzamide]
20 | 373 nM | O=C(NCC1(O)CCCCCC1)c1cc(-c2ccnn2CCO)ccc1Cl [Example 26, 2-Chloro-N-(1-hydroxy-cycloheptylmethyl)-5-[2-(2-hydroxy-ethyl)-2H-pyrazol-3-yl]-benzamide]
21 | 1400 nM | COc1ccc(Cn2cc(-c3ccc(Cl)c(C(=O)NCCc4ccccc4Cl)c3)cn2)cc1 [Example 6, 2-Chloro-N-[2-(2-chloro-phenyl)-ethyl]-5-[1-(4-methoxy-benzyl)-1H-pyrazol-4-yl]-benzamide]
22 | 8 nM | Cc1cc(-c2ccc(Cl)c(C(=O)NCC3(O)CCCC(C)(C)C3)c2)[nH]n1 (stereo not drawn) [Example 13, 2-Chloro-N-(1-hydroxy-3,3-dimethyl-cyclohexylmethyl)-5-(5-methyl-2H-pyrazol-3-yl)-benzamide]
23 | 370 nM | CCc1cc(-c2ccc(Cl)c(C(=O)NCCc3ccccc3Cl)c2)[nH]n1 [Example 16, 2-Chloro-N-[2-(2-chloro-phenyl)-ethyl]-5-(5-ethyl-2H-pyrazol-3-yl)-benzamide]
24 | 280 nM | COc1ccc(-c2ccc(Cl)c(C(=O)NCC3(O)CCCCCC3)c2)nn1 [Example 4, 2-Chloro-N-(1-hydroxy-cycloheptylmethyl)-5-(6-methoxy-pyridazin-3-yl)-benzamide]
25 | 29 nM | Cc1ccc(C2(CNC(=O)c3cc(-c4ccc(C)nc4)ccc3Cl)CCCCC2)cc1 [Example 1, 2-Chloro-5-(6-methyl-pyridin-3-yl)-N-(1-p-tolyl-cyclohexylmethyl)-benzamide]
26 | 6 nM | Cc1cc(-c2ccc(Cl)c(C(=O)NCC3(O)CCCCCC3)c2)nn1C[C@@](C)(O)CO [Example 45, 2-Chloro-5-[1-(2,3-dihydroxy-2-methyl-propyl)-5-methyl-1H-pyrazol-3-yl]-N-(1-hydroxy-cycloheptylmethyl)-benzamide]
27 | 10.5 nM | CCC(CO)NC(=O)Cn1nc(-c2ccc(Cl)c(C(=O)NCC3(O)CCCCCC3)c2)cc1C (stereo not drawn) [Example 48, 2-Chloro-N-(1-hydroxy-cycloheptylmethyl)-5-{1-[(1-hydroxymethyl-propylcarbamoyl)-methyl]-5-methyl-1H-pyrazol-3-yl}-benzamide]
28 | 180 nM | O=C(NCC1(O)CCCCCC1)c1cc(-c2cc[nH]n2)ccc1Cl [Example 19, 2-Chloro-N-(1-hydroxy-cycloheptylmethyl)-5-(1H-pyrazol-3-yl)-benzamide]
29 | 193 nM | N#CCn1ccc(-c2ccc(Cl)c(C(=O)NCC3(O)CCCCCC3)c2)n1 [Example 34, 2-Chloro-5-(1-cyanomethyl-1H-pyrazol-3-yl)-N-(1-hydroxy-cycloheptylmethyl)-benzamide]
30 | 8 nM | COC[C@H](O)Cn1nc(-c2ccc(Cl)c(C(=O)NCC3(O)CCCCCC3)c2)cc1C (stereo in doubt) [Example 39, 2-Chloro-N-(1-hydroxy-cycloheptylmethyl)-5-[1-(2-hydroxy-3-methoxy-propyl)-5-methyl-1H-pyrazol-3-yl]-benzamide]
